According to patent US20230111212A1, “MUSCLE TARGETING COMPLEXES AND USES THEREOF FOR TREATING DYSTROPHINOPATHIES” (Dyne Therapeutics, Inc., priority 2020, published 2023):

Key:
[1] = system: mdx mice (DMD mouse model); assay: open field chamber experiment with hind limb fatigue challenge; type: in vivo; conditions: single i.v. dose 30 mg/kg, two weeks after injection
Procedure: (§1) Each experimental condition was replicated in five mdx mice. Five wild-type mice (healthy mice) were also dosed with vehicle control (saline).
Two weeks after injection, the functional activity of all treated mice was determined using an open field chamber experiment. The experiment involved three consecutive stages: (1) a 10-minute period during which each mouse was placed into an open field chamber; (2) a 10-minute period during which each mouse was subjected to a hind limb fatigue challenge; and (3) a 10-minute period during which each mouse was placed into an open field chamber. The total horizontal distances traveled during stages (1) and (3) were collected. The percent change in the total distance traveled between the first and second tests.

[2] = system: mdx mice (DMD mouse model); assay: cage running wheel test; type: in vivo; conditions: single i.v. dose 30 mg/kg, four weeks after injection, 24-hour period
Procedure: as §1
Four weeks after injection, the activity of all treated mice was determined using a cage running wheel test. Each mouse was individually placed into cages with a running wheel for a 24-hour period. The 24-hour period involved five hours of light on followed by thirteen hours of darkness, and ending with six hours of light. The total distance traveled (in meters, m) by each mouse on the running wheel was continuously collected throughout the 24-hour period and subsequently binned into discrete one-hour increments.

[3] = system: creatine kinase; assay: creatine kinase activity levels in mdx mice; type: in vivo, mouse; conditions: single i.v. dose 30 mg/kg, two and four weeks after injection
Procedure: as §1
All mice in this Example were further tested for creatine kinase activity levels two weeks and four weeks after injection.

In the case of “MDX-ASO: naked exon 23 skipping PMO ASO; GGCCAAACCUCGGCUUACCUGAAAU (SEQ ID NO: 277) (PMO chemistry, chemistry not fully specified)”, the “average decrease of total horizontal distance traveled during stage (3) relative to stage (1)” value [1] is reported as “about 85%”, the “functional performance in open field chamber experiment” value [1] is reported as “same compromised functional performance as those treated with vehicle” and the “distance traveled on running wheel during the dark period” value [2] is reported as “considerably shorter distances”. The “creatine kinase activity levels” value [3] was “no significant benefit”.
